Experimental data from patent US20100004253A1, “BIOMARKERS OF TARGET MODULATION, EFFICACY, DIAGNOSIS AND/OR PROGNOSIS FOR RAF INHIBITORS” (Novartis AG, priority 2006, published 2010).

Columns and labels:
[1] = system: A375M xenograft; experiment: Mutant B-Raf xenograft model; type: in vivo
[2] = system: MEXF276 xenograft; experiment: Mutant B-Raf xenograft model; type: in vivo
[3] = system: HT29 xenograft; experiment: Mutant B-Raf xenograft model; type: in vivo
[4] = system: HCT116 xenograft; experiment: K-Ras driven xenograft model; type: in vivo
Source text: […]. […] […].

[5] = system: A375M melanoma xenograft tumors; experiment: mRNA microarray profiling of A375M xenograft tumors; type: in vivo, mice; settings: 100 mg/kg orally every other day; 783 probesets; Table IX
[6] = system: SKMEL28; settings: SKMEL28, mutant B-Raf cell line
[7] = system: A2058; settings: A2058, mutant B-Raf cell line
[8] = system: G361; settings: G361, mutant B-Raf cell line
[9] = system: COLO205; settings: COLO205, mutant B-Raf cell line
[10] = system: SKMEL31; settings: SKMEL31, mutant B-Raf cell line
[11] = system: MALME-3M; settings: mutant B-Raf cell line
[12] = system: SW620; settings: SW620, K-Ras cell line
[13] = system: SKMEL2; settings: SKMEL2, N-Ras cell line
[14] = system: MEK target phosphorylation and signaling molecules downstream from Raf (BIM, Cyclin D1, p27Kip, pAKT); settings: preclinical models

**Q.** For `Cn1c(Nc2ccc(C(F)(F)F)cc2)nc2cc(Oc3ccnc(-c4ncc(C(F)(F)F)[nH]4)c3)ccc21` [CHIR-265, {1-Methyl-5-[2-(5-trifluoromethyl-1H-imidazol-2-yl)-pyridin-4-yloxy]-1H benzoimidazol-2-yl}-(4-trifluoromethyl-phenyl)-amine], which effect on tumor [1] is on record?
**A.** tumor regression

**Q.** And the effect on tumor [2]?
**A.** tumor regression

**Q.** And the effect on tumor [3]?
**A.** tumor regression

**Q.** And the effect on tumor [4]?
**A.** tumor growth inhibition

**Q.** And the “number of genes significantly differential, alternate analysis method (six queries, p<0.005)” value [5]?
**A.** 609 genes

**Q.** And the “inhibition of the Raf pathway” value [6]?
**A.** inhibition of the Raf pathway

**Q.** And the “inhibition of the Raf pathway” value [7]?
**A.** inhibition of the Raf pathway

**Q.** What about the “inhibition of the Raf pathway” value [8] of the same compound?
**A.** inhibition of the Raf pathway

**Q.** And the “inhibition of the Raf pathway” value [9]?
**A.** inhibition of the Raf pathway

**Q.** What about the “inhibition of the Raf pathway” value [10] of the same compound?
**A.** inhibition of the Raf pathway

**Q.** And the “inhibition of the Raf pathway” value [11]?
**A.** inhibition of the Raf pathway

**Q.** What about the “inhibition of the Raf pathway” value [12] of the same compound?
**A.** inhibition of the Raf pathway

**Q.** What about the “inhibition of the Raf pathway” value [13] of the same compound?
**A.** inhibition of the Raf pathway

**Q.** And the “inhibition of MEK target phosphorylation and signaling molecules downstream from Raf in the MAPK pathway” value [14]?
**A.** dose and time dependent inhibition
